Source: patent publication US20110212047A1, “Polymer Therapy for the Treatment of Chronic Microvascular Diseases” (Synth Rx, Inc., priority 2007, published 2011)

System: bilateral neovascular AMD with occult choroidal neovascularization
Test: Treatment of a patient with bilateral neovascular AMD with occult choroidal neovascularization
Format: in vivo, human
Conditions: after intravitreal injection to both eyes

With pegaptanib the “vision, left eye” value (20/80 before) was 20/100 and the “vision, right eye” value (CF at six feet before) was “CF at six feet”.
